This passage reports EC50 results from BindingDB's records for PubMed 38748608 (University of Florida).

For this assay, the target named is Neuronal acetylcholine receptor alpha9/alpha10 (Homo sapiens). The assay is described as follows: Partial agonist activity at human alpha9alpha10 nAChR expressed as xenopus laevis oocytes assessed as increase in receptor desensitization measured after 120 secs by two-electrode voltage-clamp electrophysiology method.

As usually defined, the EC50 is the concentration needed to bring the measured effect to its halfway point. With `CC[N+]1(C)CCN(c2ccc(NC(C)=O)cc2)CC1`, the EC50 is 640 nM.
